This is an account of results in paper PMC11755020 (Computational and Structural Biotechnology Journal, 2024).

Molecules are shown by their SMILES. pKd: −log10 of the molar value.

In this test the target is T1, HNF4α (hepatocyte nuclear factor 4α) (Homo sapiens, UniProt P41235).
T1 sequence (P41235 147-377 limits assumed): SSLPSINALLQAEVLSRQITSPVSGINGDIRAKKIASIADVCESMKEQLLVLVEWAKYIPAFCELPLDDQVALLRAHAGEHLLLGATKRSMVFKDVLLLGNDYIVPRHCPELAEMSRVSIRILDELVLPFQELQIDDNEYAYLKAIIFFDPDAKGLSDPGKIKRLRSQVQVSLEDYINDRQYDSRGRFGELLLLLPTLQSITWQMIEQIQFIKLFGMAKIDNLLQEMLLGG
The test is described as follows: microscale thermophoresis. The format is binding. For orientation: MST reads how a fluorescent partner responds to local heating, with and without ligand.
`O=C(/C=C/c1ccc(O)c(O)c1)O[C@@H]1C[C@@](OC(=O)/C=C/c2ccc(O)c(O)c2)(C(=O)O)C[C@@H](O)[C@@H]1O` [cynarin] had a negative-log Kd (pKd) of 2.51.
With `COc1c(/C=C/C(=O)c2ccc(O)cc2)ccc(O)c1O` [licochalcone B] the figure was 4.11.
Compound `O=C(/C=C/c1ccc(O)c(O)c1)O[C@H](Cc1ccc(O)c(O)c1)C(=O)O` [rosmarinic acid] showed a pKd of 4.46.

As a reminder, the pKd is the Kd on a negative log10 scale, so that one unit is a factor of ten. A high value points to a low Kd.
